Measurements published in PMC2263054, “Functional evolution of the vitamin D and pregnane X receptors” (BMC Evolutionary Biology, 2007).

Tests used:
[1] = molecular target: T1, Xenopus laevis VDR (Xenopus laevis, UniProt O13124); assay: luciferase reporter transactivation assay in HepG2-NTCP cells, GAL4/xlVDR LBD chimera with tk-UAS-Luc; format: cell-based; settings: screening for activators, at least three concentrations of each drug
T1 sequence (O13124 90-422): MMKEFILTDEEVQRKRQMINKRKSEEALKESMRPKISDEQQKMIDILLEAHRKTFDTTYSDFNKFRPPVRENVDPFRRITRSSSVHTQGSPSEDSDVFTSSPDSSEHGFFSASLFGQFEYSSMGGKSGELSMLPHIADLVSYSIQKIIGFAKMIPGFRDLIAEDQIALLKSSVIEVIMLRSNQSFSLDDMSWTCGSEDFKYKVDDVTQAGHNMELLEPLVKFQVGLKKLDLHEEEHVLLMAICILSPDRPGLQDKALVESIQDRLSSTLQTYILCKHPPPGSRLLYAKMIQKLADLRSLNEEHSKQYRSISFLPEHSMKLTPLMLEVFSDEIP

[2] = molecular target: T2, Zebrafish VDR (Danio rerio, UniProt Q9PTN2); assay: luciferase reporter transactivation assay in HepG2-NTCP cells, GAL4/zfVDR LBD chimera with tk-UAS-Luc; format: cell-based; settings: screening for activators, at least three concentrations of each drug
T2 sequence (Q9PTN2 121-453): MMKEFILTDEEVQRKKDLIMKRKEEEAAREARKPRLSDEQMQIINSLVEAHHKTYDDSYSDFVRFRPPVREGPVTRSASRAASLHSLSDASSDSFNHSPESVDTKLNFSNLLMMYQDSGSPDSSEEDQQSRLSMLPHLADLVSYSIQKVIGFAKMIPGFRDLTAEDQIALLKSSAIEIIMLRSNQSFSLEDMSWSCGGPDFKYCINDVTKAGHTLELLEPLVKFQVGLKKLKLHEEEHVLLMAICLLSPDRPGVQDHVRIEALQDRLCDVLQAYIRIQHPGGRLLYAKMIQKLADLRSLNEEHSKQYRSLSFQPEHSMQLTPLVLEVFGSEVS

[3] = molecular target: T3, Sea lamprey VDR (Petromyzon marinus, UniProt Q7ZZY9); format: cell-based; settings: screening for activators, at least three concentrations of each drug
T3 sequence (Q7ZZY9 92-406): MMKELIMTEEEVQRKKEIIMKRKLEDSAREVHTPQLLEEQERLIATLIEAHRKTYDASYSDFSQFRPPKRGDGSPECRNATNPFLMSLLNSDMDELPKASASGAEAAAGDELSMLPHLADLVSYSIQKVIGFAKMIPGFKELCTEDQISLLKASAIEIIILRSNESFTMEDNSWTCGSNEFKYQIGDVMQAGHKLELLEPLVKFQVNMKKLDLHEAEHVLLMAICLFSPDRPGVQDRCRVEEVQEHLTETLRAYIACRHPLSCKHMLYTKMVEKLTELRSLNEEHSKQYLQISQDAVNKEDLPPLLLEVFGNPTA

[4] = test system: Ciona VDR/PXR

Row | Compound | Effect on Xenopus laevis VDR [1] | Effect on zebrafish VDR [2] | Effect on sea lamprey VDR [3] | activation of ciVDR/PXR [4]
1 | C[C@H](O)[C@H]1CC[C@H]2[C@@H]3CC[C@@H]4C[C@H](O[C@@H]5O[C@H](C(=O)O)[C@@H](O)[C@H](O)[C@H]5O)CC[C@]4(C)[C@H]3CC[C@]12C [Pregnanediol glucuronide] | No effect | No effect | No effect | –
2 | CC(=O)[C@H]1[C@H](C#N)C[C@H]2[C@@H]3CC=C4C[C@@H](O)CC[C@]4(C)[C@H]3CC[C@@]21C [Pregnenolone-16a-carbonitrile] | No effect | No effect | No effect | –
3 | CC(=O)[C@H]1CC[C@H]2[C@@H]3CCC4=CC(=O)CC[C@]4(C)[C@H]3CC[C@]12C [Progesterone] | No effect | No effect | No effect | –
4 | COC(=O)[C@H]1[C@H]2C[C@@H]3c4[nH]c5cc(OC)ccc5c4CCN3C[C@H]2C[C@@H](OC(=O)c2cc(OC)c(OC)c(OC)c2)[C@@H]1OC [Reserpine] | No effect | No effect | No effect | –
5 | CC1=C(/C=C/C(C)=C/C=C/C(C)=C/CO)C(C)(C)CCC1 [Retinol] | No effect | No effect | No effect | –
6 | CC(=O)OC/C=C(C)/C=C/C=C(C)/C=C/C1=C(C)CCCC1(C)C [Retinyl acetate] | No effect | No effect | No effect | –
7 | CCOP(=O)(OCC)C(=Cc1cc(C(C)(C)C)c(O)c(C(C)(C)C)c1)P(=O)(OCC)OCC [SR12813] | No effect | No effect | No effect | –
8 | O=S(=O)(c1ccccc1)N(CC(F)(F)F)c1ccc(C(O)(C(F)(F)F)C(F)(F)F)cc1 [T-0901317] | None of these three VDRs were activated | None of these three VDRs were activated | None of these three VDRs were activated | –
9 | Clc1cnc(Oc2ccc(Oc3ncc(Cl)cc3Cl)cc2)c(Cl)c1 [TCPOBOP] | No effect | No effect | No effect | –
10 | C/C(=C\c1ccc(C(=O)O)cc1)c1ccc2c(c1)C(C)(C)CCC2(C)C [TTNPB] | No effect | No effect | No effect | –
11 | C[C@H](CCC(=O)NCCS(=O)(=O)O)[C@H]1CC[C@H]2[C@@H]3[C@H](O)C[C@@H]4C[C@H](O)CC[C@]4(C)[C@H]3CC[C@]12C [Taurochenodeoxycholic acid] | No effect | No effect | No effect | –
12 | C[C@H](CCC(=O)NCCS(=O)(=O)[O-])[C@H]1CC[C@H]2[C@@H]3CC[C@@H]4C[C@H](O)CC[C@]4(C)[C@H]3C[C@H](O)[C@]12C.[Na+] [Taurodeoxycholic acid sodium salt] | No effect | No effect | No effect | –
13 | C[C@H](CCC(=O)NCCS(=O)(=O)[O-])[C@H]1CC[C@H]2[C@@H]3C[C@H](O)[C@@H]4C[C@H](O)CC[C@]4(C)[C@H]3CC[C@]12C.[Na+] [Taurohyodeoxycholic acid] | No effect | No effect | No effect | –
14 | C[C@H](CCC(=O)NCCS(=O)(=O)O)[C@H]1CC[C@H]2[C@@H]3CC[C@@H]4C[C@H](OS(=O)(=O)O)CC[C@]4(C)[C@H]3CC[C@]12C [Taurolithocholic acid 3-sulfate] | No effect | No effect | No effect | –
15 | CCCCCCCCCCCCCCSCC(=O)O [Tetradecylthioacetic acid] | No effect | No effect | No effect | –
16 | C[C@]12CC[C@@H](O)C[C@H]1CC[C@@H]1[C@@H]2[C@@H](O)C[C@@]2(C)[C@H]1CC[C@]2(O)C(=O)CO [Tetrahydrocortisol] | No effect | No effect | No effect | –

Row | Compound | Effect on Xenopus laevis VDR [1] | Effect on zebrafish VDR [2] | Effect on sea lamprey VDR [3] | activation of ciVDR/PXR [4]
17 | C[C@]12CC[C@@H](O)C[C@H]1CC[C@@H]1[C@@H]2C(=O)C[C@@]2(C)[C@H]1CC[C@]2(O)C(=O)CO [Tetrahydrocortisone] | No effect | No effect | No effect | –
18 | Cc1c(C)c2c(c(C)c1O)CCC(C)(COc1ccc(CC3SC(=O)NC3=O)cc1)O2 (centres unmarked) [Troglitazone] | No effect | No effect | No effect | –
19 | CC(C)=CCC/C(C)=C/CC/C(C)=C/CC/C(C)=C/CC1=C(C)C(=O)c2ccccc2C1=O [Vitamin K2] | No effect | No effect | No effect | –
20 | CC1=CC(=O)c2ccccc2C1=O [Vitamin K3] | No effect | No effect | No effect | –
21 | Cc1cccc(Nc2cc(Cl)nc(SCC(=O)O)n2)c1C [WY-14643] | No effect | No effect | No effect | –
22 | C/C=C1\C(=O)C[C@H]2[C@@H]3CCC4=CC(=O)CC[C@]4(C)[C@H]3CC[C@]12C [Z-Guggulsterone] | No effect | No effect | No effect | –
23 | C[C@H](CCC(=O)O)[C@H]1CC[C@H]2[C@@H]3[C@H](O)[C@@H](O)[C@@H]4C[C@H](O)CC[C@]4(C)[C@H]3CC[C@]12C [a-Muricholic acid] | No effect | No effect | No effect | –
24 | C[C@H](CCC(=O)O)[C@H]1CC[C@H]2[C@@H]3[C@@H](O)[C@@H](O)[C@@H]4C[C@H](O)CC[C@]4(C)[C@H]3CC[C@]12C [b-Muricholic acid] | No effect | No effect | No effect | –
25 | NC(=O)N1c2ccccc2C=Cc2ccccc21 [carbamazepine] | – | – | – | activated
26 | COC(=O)/C=C/c1cccc(N(Cc2ccc(-c3ccc(N(C)C)cc3)cc2)C(=O)C2CCCCC2)c1 [fexaramine] | None of these three VDRs were activated | None of these three VDRs were activated | None of these three VDRs were activated | –
27 | CCCCOC(=O)c1ccc(N)cc1 [n-Butyl 4-aminobenzoate] | No effect | No effect | No effect | activated
28 | CCCOC(=O)c1ccc(O)cc1 [n-Propyl 4-hydroxybenzoate] | No effect | No effect | No effect | –
29 | C[C@H](CCC(=O)O)[C@H]1CC[C@H]2[C@@H]3[C@@H](O)[C@H](O)[C@@H]4C[C@H](O)CC[C@]4(C)[C@H]3CC[C@]12C [w-Muricholic acid] | No effect | No effect | No effect | –
30 | AM-580 | No effect | No effect | No effect | –
31 | Hyperforin | No effect | No effect | No effect | –
